Each structure is given as a SMILES string.

Here are results for one compound from PMC6981454, “Promising 2,6,9-Trisubstituted Purine Derivatives for Anticancer Compounds: Synthesis, 3D-QSAR, and Preliminary Biological Assays” (International Journal of Molecular Sciences, 2019).

Series [1] deals with HL-60 cells. The experiment in a line: Annexin-V FITC/PI apoptosis assay by flow cytometry. It counts as cell-based, human. The note with it: for Q2 (late apoptosis) cells / Q3 (viable) cells: 24 h. Here is the method:
To assess an unequivocal identification of apoptosis, annexin-V FITC is commonly combined with PI to understand if cells are viable, apoptotic, or necrotic through differences in plasma membrane integrity and permeability. To better understand the ability of compound 7h (the lowest IC50 values and high SI) to induce cell death, we performed the annexin-V FITC/PI assay. HL-60 cells were treated with 7h at the dose corresponding to 5 and 50 μM by 24 h, then harvested and stained with annexin-V FITC and PI (Figure 8). […] In addition, Figure 8 illustrates a discrete increase in the apoptosis (Q2 and Q4) from 5 to 50 µM, as well as an increase in necrosis at the concentration of 50 µM.
HL60 cells were seeded into a 12-well plate (5 × 10^5 per well) and incubated in RPMI 1640 […] for 24 h at 37 °C—then, replaced with fresh medium containing the tested compound 7h at indicated concentrations for another 24 h. The cells were collected and then used the Annexin-V/PI Alexa Fluor 488 apoptosis kit (Invitrogen, Carlsbad, CA, USA) according to the instruction of manufacturer to detect the apoptosis cells, which were analyzed by flow cytometry (BD; FACScanto II, Mountain View, CA) and data were processed using FCS Express v6 software. Two independent biological replicates were performed.
In general terms: Flow cytometry measures light scatter and fluorescence of single cells or particles in a stream.

The subject of series [2] is HL-60 cells. Kind of series: Cell cycle analysis, PI flow cytometry. Type of series: cell-based, human. The note with it: HL-60, 25 µM, 48 h. Here is the method:
Considering that apoptotic mechanisms are associated with the G1/S boundary cell cycle arrest and the inhibition of cell cycle progression is an important factor to control cancer cell growth, we were interested in investigating whether 7h affects the cell cycle of HL-60 cells. We analyzed the cell cycle distribution of the cells stained with PI using flow cytometry. […] This effect is in agreement with apoptotic mechanisms.
HL60 cells were plated in 6-well plates at a density of 2.0 × 10^5 cells/1.5 mL/well, and grown overnight at 37 °C in a 5% CO2 humidified atmosphere. Cells were treated with compounds 7h at 25 µM concentration or 1% DMSO (controls) for 48 h. Aliquots of cells were collected, pelleted, washed, and fixed with ethanol (70% v/v) for at least 30 min at 4 °C. Cells were twice resuspended in PBS, and after centrifugation and elimination of the supernatant, resuspended in a solution containing PBS, PI ([…], Invitrogen), RNase A (20 mg/mL, Invitrogen). After a final incubation for 1 h in the dark at 37 °C; PI signal was measured using a FACS canto II flowcytometer (BD; Mountain View, CA) with a 488 nm excitation laser, captured, and FACS Diva was used as the acquisition software. The percentage of cells in each phase was analyzed using the FCS Express v6 software. Three independent biological replicates were performed.

Consider `O=[N+]([O-])c1ccc(N2CCN(c3nc(Cl)nc4c3ncn4C3CCCC3)CC2)cc1` [7h, 2-Chloro-9-cyclopentyl-6-(4-(4-nitrophenyl)piperazin-1-yl)-9H-purine], for which the “Q2 (late apoptosis) cells” value with HL-60 cells [1] (HL-60, 5 μM) is listed as 36.5%; in the series on HL-60 cells [1] (HL-60, 50 μM), 37.7%. In addition, the “Q3 (viable) cells” value with HL-60 cells [1] (HL-60, 5 μM, 5 µM) was ~55%; in the series with HL-60 cells [1] (HL-60, 50 μM, 50 µM), 38%. In the series with HL-60 cells [1] (Homo sapiens, HL-60, 24 h, HL-60, 5 μM, read-out: Q3 (viable) cells), the viability at 5 µM stood at 55.2%. The viability at 50 µM in the series on HL-60 cells [1] (Homo sapiens, HL-60, 24 h, HL-60, 50 μM, read-out: Q3 (viable) cells) came to 37.8%. Moreover, the “effect on cell cycle distribution” value with HL-60 cells [2] is “accumulation of cells in S cell cycle phase”.
